From patent publication US8889638B2, “Stimulus-triggered prodrugs” (The Regents of the University of California, priority 2010, dated 2014)

Legend:
MMP-12 = MMP-12 (Homo sapiens, UniProt P39900); conditions: read-out: IC50 against MMP-12; cited from earlier work
MMP-8 = MMP-8 (Homo sapiens, UniProt P22894); conditions: read-out: IC50 against MMP-8; cited from earlier work
MMP-3 = MMP-3 (Homo sapiens, UniProt P08254); conditions: read-out: IC50 against MMP-3; cited from earlier work
[1] = target: T1, MMP-9 (catalytic domain, human, recombinant) (Homo sapiens, UniProt P14780); test: MMP-9 inhibition assay of boronic ester proinhibitors (IC50; activation with H2O2); format: biochemical; conditions: active inhibitor; read-out: IC50 against MMP-9
T1 construct: MMP-9 (catalytic domain, human, recombinant); purchased BIOMOL International
T1 sequence (P14780 107-444 limits assumed): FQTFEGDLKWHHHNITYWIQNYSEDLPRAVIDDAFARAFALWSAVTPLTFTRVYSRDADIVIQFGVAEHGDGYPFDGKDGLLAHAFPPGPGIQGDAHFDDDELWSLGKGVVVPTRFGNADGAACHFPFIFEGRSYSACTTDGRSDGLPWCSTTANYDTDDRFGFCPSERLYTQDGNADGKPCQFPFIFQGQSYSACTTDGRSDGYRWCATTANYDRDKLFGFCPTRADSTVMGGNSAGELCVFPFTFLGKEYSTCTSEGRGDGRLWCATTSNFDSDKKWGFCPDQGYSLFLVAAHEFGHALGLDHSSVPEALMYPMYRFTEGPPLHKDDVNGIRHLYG
Description: MMP-9 (catalytic domain, human, recombinant) and MMP-12 (catalytic domain, human, recombinant) were purchased from Enzo Life Sciences. The assays were carried out in 96-well plates using a Bio-Tek Flx 800 plate reader. IC50 values were obtained for proinhibitors B17 and B18 against MMP-9 and MMP-12. Serial dilutions of the compounds dissolved in DMSO were incubated at 37° C. for 30 minutes with 20 μL of the appropriate MMP (0.45 U/mL for MMP-9 and 0.35 U/mL for MMP-12) in MMP assay buffer (50 mM HEPES, 10 mM CaCl2, 0.10% Brij-35, pH 7.5), for a total volume of 99 pt. The reaction was initiated by the addition of 1 μL (400 μM) of the fluorescent substrate (Mca-Pro-Leu-Gly-Leu-Dpa-Ala-Arg-NH2 where Mca=(7-methoxycoumarin-4-yl)-acetyl and Dpa=N-3-(2,4-dinitrophenyl)-L-α-β-diaminopropionyl)) and kinetic activity was measured every minute for 20 min with excitation and emission wavelengths at 335 nm and 405 nm, respectively. Measurements were performed in duplicate. The percent inhibition was plotted versus the inhibitor concentration. A linear fit of the data for each experiment gives the IC50 value of the inhibitor where y=50%.
MMP activity in the presence of H2O2 was evaluated with both MMP-9 and MMP-12 with 1 h of activation at concentrations close to their IC50 values. Using the calculated rate constants for the protected ZBGs B19 and B20, it was determined that 1 h of activation time for each proinhibitor with 100 μM H2O2 will provide enough 1,2-HOPO-2 or PY-2 to inhibit the MMPs at 50%. For example, for proinhibitor B17 with MMP-9, if the rate=k[B17][H2O2] and k=3.9 M^−1s^−1, [B17]=10 μM, and [H2O2]=100 μM, the rate of conversion would be 3.9×10^−9 M/s. Therefore, activation for 1 h would release 14 μM 1,2-HOPO-2, or enough inhibitor to provide approximately 50% inhibition of MMP-9 (IC50 value for 1,2-HOPO-2 against MMP-9 is ˜6 μM).
In each well, 1 μL of proinhibitors B17 and B18 and the inhibitors 1,2-HOPO-2 and PY-2 in DMSO (1 mM for MMP-9 or 5 μM for MMP-12) were incubated for 1 h at 37° C. with 10 μL H2O2 (1 mM in HEPES buffer, pH 7.5) in MMP assay buffer for a total volume of 79 pt. […] After activation of the proinhibitors, 20 μL of the appropriate MMP (0.45 U/mL for MMP-9 and 0.35 U/mL for MMP-12) was added and incubated for an additional 30 min. The reaction was initiated by the addition of 1 pt (400 μM) of the fluorescent substrate and kinetic activity was measured every minute for 20 min with excitation and emission wavelengths at 335 nm and 405 nm, respectively. Enzyme activity with inhibitor was calculated with respect to the control experiment (no inhibitor present). Measurements were performed in duplicate in two independent experiments.

[2] = Cleavage of boronic ester/acid protected compounds by H2O2 (UV-Vis, rate constant, HPLC); format: physicochemical; conditions: for k, pseudo first-order rate constants calculated with an excess of H2O2: 50 μM in HEPES buffer pH 7.5, room temperature; for rate constant of conversion with an excess of H2O2: pseudo-first order conditions, HEPES buffer
Description: (§1) Absorption spectra of compounds B1-B16 were taken on a Perkin-Elmer Lambda 25 UV-visible spectrophotometer. To a 1.0 mL solution at 0.05 mM concentration in HEPES buffer (50 mM, pH 7.5) was added H2O2 (10 uL (0.09 M) in HEPES for compounds B1-B12 and B14-B16, 10 uL (0.9 M) in HEPES for compound B3, and 2.8 uL (0.09 M) in HEPES for compound B13). Spectra were monitored over time at room temperature. Absorption spectra of compounds B17-B21 were taken on a Perkin-Elmer Lambda 25 UV-visible spectrophotometer. To a 1.0 mL solution at 0.05 mM concentration of compounds 1-7 in HEPES buffer (50 mM, pH=7.5) was added H2O2 (10 uL, 0.09 M in HEPES) or KO2 (0.10 mM) with catalase (5 U). Hydrolytic stability was measured by monitoring samples of B19-B21 in HEPES buffer for a 24 h time period. Spectra were monitored over time at room temperature.
The pseudo-first order rate constant was calculated by monitoring the absorption spectra over time in the presence of excess hydrogen peroxide. To a 1.0 mL solution of compounds B1-B3 and B10-B14 in HEPES buffer (50 mM, pH 7.5) at 50 μM was added H2O2 to final concentrations of 150 μM, 250 μM, 500 μM, 750 μM, and 900 μM. Spectra were monitored over 15-30 min at room temperature with at least 50 spectra recorded. The change in absorption at 302 nm for B1-B3, 272 nm for B10, 312 nm for B11, 268 for B12, 306 nm for B13, and 303 nm for B14 were monitored. For compounds B1-B3 and B10-B11, the rate constant (kobs) was found from monitoring the appearance of the monitored absorption peak by plotting the linear slope of ln [(A∞−At)/(A∞)] vs. time (where A∞ is the absorbance of a 50 μM sample of the methyl salicylate for B1-B3, maltol for B10, and 1,2-HOPO for B11). For compounds B12-B14 the rate constant (kobs) was found from monitoring the disappearance of the monitored absorption peak by plotting the linear slope of ln [(A−AZBG)/(A0−AZBG)] vs. time (where AZBG is the absorbance of a 50 μM sample of the ZBG and A0 is the initial absorbance of […]).^3 The rate of conversion was determined from the slope of the line of kobs vs. [H2O2]. The pseudo-first order rate constant was calculated following literature procedure.^[15] To a 1.0 mL solution of compounds B19-B21 in HEPES buffer at 50 μM was added H2O2 to final concentrations of 150 μM, 250 μM, 500 μM, 750 μM, and 900 μM. Spectra were monitored over 15-30 min at room temperature with at least 50 spectra recorded. The change in absorption at 292 nm for B19 and 252 nm for B20 and B21 were monitored. The rate constant (kobs) was found from the linear slope of ln [(A−AZBG)/(A0−AZBG)] vs. time (where AZBG is the absorbance of a 50 μM sample of the ZBG and A0 is the initial absorbance of B19-B21). The rate of conversion was determined from the slope of the line of kobs vs. [H2O2].
Analytical HPLC was performed on a HP Series 1050 system equipped with a Vydac® C18 reverse phase column (218 TP, 250×4.6 mm, 5 μm). […] Starting with 95% A and 5% B, an […] gradient was run for 15 min to a final solvent mixture of 5% A and 95% B, which was held for 5 min before ramping back down to 95% A and 5% B in 2 min and holding for an additional 4 min. Compounds were prepared in HEPES buffer (50 mM, pH 7.5) at a concentration of 1 mM. Retention times of compounds were determined under identical HPLC conditions prior to and after reaction with H2O2. LC-MS(+) was performed on compounds B6, B15 and B16 to confirm cleavage of the boronic ester to the phenolic moiety.

[3] = Solubility in buffered solution / water; format: physicochemical; conditions: relative to the parent analog
[4] = Hydrolytic stability of boronic ester compounds in HEPES buffer; format: physicochemical; conditions: 24 h time period
Description: as §1

[5] = Stability of protected ZBGs towards KO2 with catalase; format: physicochemical; conditions: KO2 0.10 mM and catalase 5 U, 60 min
Description: as §1

[6] = Cleavage of sulfonate ester PZBGs and proMMPi by H2O2 (UV-Vis, rate constant, HPLC); format: physicochemical; conditions: 50 μM in HEPES buffer, room temperature
Description: (§2) Absorption spectra of compounds were taken on a Perkin-Elmer Lambda 25 UV-Visible Spectrophotometer. To a 1.0 mL solution at 0.05 mM concentration of each compound in HEPES buffer (50 mM, pH 7.5) was added H2O2 (10 μL, 0.09M in HEPES) and absorption spectra were monitored over time at room temperature. Hydrolytic stability was measured by monitoring each sample in HEPES buffer over a 24 hour time period.
The pseudo-first order rate constant was calculated following literature procedure. To a 1.0 mL solution of compounds PZBG-1a, PZBG-1b, PZBG-1e, PZBG-5a, and PZBG-5b in HEPES buffer at 50 μM was added H2O2 to final concentrations of 150 μM, 250 μM, 500 μM, 750 μM, and 900 μM. Spectra were monitored over 15-30 min at room temperature with at least 50 spectra recorded at every concentration. The change in absorption at 298 nm for PZBG-1a and PZBG-1b were monitored, while the change in absorption at 288 nm was recorded for PZBG-1e, and 310 nm for PZBG-5a and PZBG-5b. The rate constant (kobs) was found from the linear slope of ln [(A−AZBG)/(Ao−AZBG)] vs. time where AZBG is the absorbance of a 50 μM sample of the ZBG or full-length inhibitor and AO is the initial absorbance of PZBG-1a, PZBG-1b, PZBG-1e, PZBG-5a, and PZBG-5b. The rate of conversion was determined from the slope of the line of kobs vs. [H2O2].
Analytical HPLC was performed on a HP Series 1050 system equipped with a Vydac® C18 reverse phase column (218 TP, 250×4.6 mm, 5 μm). […] Starting with 95% A and 5% B, an […] gradient was run for 15 min to a final solvent mixture of 5% A and 95% B, which was held for 5 min before ramping back down to 95% A and 5% B in 2 min and holding for an additional 4 min. Compounds ZBG-1a and PZBG-1a were prepared in HEPES buffer (50 mM, pH 7.5) at a concentration of 1 mM and retention times were determined. To evaluate cleavage by H2O2, a 1 mM solution of PZBG-1a in HEPES buffer was reacted with a 20-fold excess of H2O2 before analyzing under identical HPLC conditions as before.

[7] = Hydrolytic stability of sulfonate esters in HEPES buffer; format: physicochemical; conditions: in 6 h
Description: as §2

Sequence of MMP-3 (P08254 100-477, species assumed): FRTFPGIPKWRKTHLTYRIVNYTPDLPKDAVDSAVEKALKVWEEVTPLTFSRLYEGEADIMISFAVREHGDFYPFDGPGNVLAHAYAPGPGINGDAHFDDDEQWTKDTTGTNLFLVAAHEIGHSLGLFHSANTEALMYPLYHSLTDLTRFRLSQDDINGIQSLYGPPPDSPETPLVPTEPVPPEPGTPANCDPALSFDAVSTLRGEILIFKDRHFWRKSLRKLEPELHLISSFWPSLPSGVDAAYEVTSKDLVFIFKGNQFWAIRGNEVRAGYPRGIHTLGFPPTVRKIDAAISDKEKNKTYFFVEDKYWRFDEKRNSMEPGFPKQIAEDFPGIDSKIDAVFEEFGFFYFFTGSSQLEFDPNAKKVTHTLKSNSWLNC
Sequence of MMP-12 (P39900 106-470): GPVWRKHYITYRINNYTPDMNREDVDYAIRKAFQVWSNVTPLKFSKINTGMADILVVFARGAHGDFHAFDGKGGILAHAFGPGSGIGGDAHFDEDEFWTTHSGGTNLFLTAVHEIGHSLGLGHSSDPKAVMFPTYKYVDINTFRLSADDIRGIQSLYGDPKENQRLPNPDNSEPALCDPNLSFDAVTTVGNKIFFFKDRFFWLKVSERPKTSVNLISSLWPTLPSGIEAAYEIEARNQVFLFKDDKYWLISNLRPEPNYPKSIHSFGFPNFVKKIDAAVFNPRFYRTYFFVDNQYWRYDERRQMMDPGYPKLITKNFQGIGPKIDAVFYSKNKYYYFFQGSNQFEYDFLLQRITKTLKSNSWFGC
Sequence of MMP-8 (P22894 101-467): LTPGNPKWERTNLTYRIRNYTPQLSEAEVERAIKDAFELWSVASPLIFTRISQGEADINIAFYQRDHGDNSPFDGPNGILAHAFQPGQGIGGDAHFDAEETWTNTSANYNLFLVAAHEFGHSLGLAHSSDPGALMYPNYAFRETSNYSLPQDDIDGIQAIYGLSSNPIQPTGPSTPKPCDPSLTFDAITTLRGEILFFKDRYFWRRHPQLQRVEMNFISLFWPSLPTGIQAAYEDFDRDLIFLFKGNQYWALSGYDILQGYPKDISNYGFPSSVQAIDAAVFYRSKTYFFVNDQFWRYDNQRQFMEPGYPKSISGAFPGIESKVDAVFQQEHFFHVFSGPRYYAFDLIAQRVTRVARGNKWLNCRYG

Row | SMILES | k, pseudo first-order rate constants calculated with an excess of H2O2 [2] | solubility [3] | rate constant of conversion with an excess of H2O2 [2] | solution stability in buffer [4] | stability towards KO2 [5] | further results
1 | O=C(NCc1ccc(-c2ccccc2)cc1)c1cccc(=O)n1O [1,2-HOPO-2, N-(Biphenyl-4-ylmethyl)-1-hydroxy-6-oxo-1,6-dihydropyridine-2-carboxamide] |  |  |  |  |  | IC50 (MMP-12): < 100 nM; IC50 (MMP-8): < 100 nM; IC50 (MMP-3): < 100 nM; IC50 [1]: ~6000 nM
2 | Cc1occc(=O)c1OCc1ccc(B(O)O)cc1 [Compound B10, (4-(((2-Methyl-4-oxo-4H-pyran-3-yl)oxy)methyl)phenyl)boronic acid] | 3.1 ± 0.5 M⁻¹ s⁻¹ | improved solubility |  |  |  | 
3 | O=c1ccccn1OCc1ccc(B(O)O)cc1 [Compound B11, (4-(((2-Oxopyridin-1(2H)-yl)oxy)methyl)phenyl)boronic acid] | 5.9 ± 0.2 M⁻¹ s⁻¹ | improved solubility | 5.9 M⁻¹ s⁻¹ |  |  | 
4 | CC1(C)OB(c2ccc(COn3ccccc3=O)cc2)OC1(C)C [Compound B19, 1-((4-(4,4,5,5-tetramethyl-1,3,2-dioxaborolan-2-yl)benzyl)oxy)pyridin-2(1H)-one] |  |  | 4.0 M⁻¹ s⁻¹ | stable | stable towards KO2 | 
5 | Cc1occc(=O)c1OCc1ccc(B2OC(C)(C)C(C)(C)O2)cc1 [Compound B20, 2-methyl-3-((4-(4,4,5,5-tetramethyl-1,3,2-dioxaborolan-2-yl)benzyl)oxy)-4H-pyran-4-one] |  |  | 2.9 M⁻¹ s⁻¹ | stable | stable towards KO2 | 
6 | O=C(O)c1ccc(S(=O)(=O)On2ccccc2=O)cc1 [PZBG-1e, 4-(((2-Oxopyridin-1(2H)-yl)oxy)sulfonyl)benzoic acid] |  | substantial increase in solubility |  |  |  | pseudo-first order rate constant with an excess of H2O2 [6]: 1.3 M⁻¹ s⁻¹; cleavage in buffer [7]: ~50%
